Reference: US20260092919A1, “REAGENT FOR MEASURING TYROSINE KINASE ACTIVITY, AND USE THEREOF” (HILO CO. LTD., priority 2022, published 2026)

Key:
[1] = tested on: EGFR tyrosine kinase activity; test: FRET efficiency (FRET/CFP) time-lapse imaging in Cos-1 cells expressing biosensor; type: cell-based, African green monkey
Method: (§1) Fluorescence images of cells were acquired using an IX81 research-grade inverted microscope (Olympus) equipped with a stage incubator (LCI), a motorized XY-stage (Chuo Precision Industrial), and a CoolSNAP Myo cooled charge-coupled device (CCD) camera (Nippon Roper) under the control of MetaMorph software (Molecular Devices Japan). […] White light from a SOLA light engine (Lumencore) was attenuated by a 20% neutral density filter and used as excitation light after interference by each filter. Images were captured using a 60× oil immersion objective lens (numerical aperture 1.40) (4×4 binning, fluorescence images: exposure time 200 msec, differential interference contrast images: exposure time 20 msec).
(§2) After 24 hours, the medium was changed to phenol red-free MEM-F12 medium, and the cells were serum-starved for 4 hours. Time-lapse fluorescence imaging was then initiated, with FRET, CFP, and DIC images acquired every 30 seconds. Cells were stimulated by adding EGF to a final concentration of 50 ng/ml at 10 minutes after starting imaging, and imaging was continued for another 50 minutes. Following background subtraction, FRET efficiency was calculated as the ratio of cellular fluorescence intensity (FRET/CFP) from each channel at each time point.

[2] = tested on: EGFR tyrosine kinase activity in H1299 cells; test: FRET efficiency in H1299 cells expressing Pickles_2.34NES
Method: as §1, §2

[3] = target: EGFR tyrosine kinase activity in HCC827 cells (Homo sapiens, UniProt P00533, DEL746-750); test: FRET efficiency in HCC827 cells expressing Pickles biosensor
Method: as §1, §2

[4] = target: T1, EGFR tyrosine kinase activity in A549 cells (Homo sapiens, UniProt P00533); test: FRET efficiency in A549 cells expressing Pickles_2.34NES; type: cell-based
T1 construct: pFX-Pickles_2.34NES was introduced into A549 cells and H1299 cells; endogenous in cells; host or cells: A549
Method: as §1, §2

Substance | change in FRET efficiency with HGF stimulation ([1]; Cos-1 cells expressing Pickles, HGF instead of EGF, same amount) | increase in FRET efficiency upon EGF stimulation ([1]; Cos-1 cells expressing the biosensor, EGF 50 ng/ml) | increase in FRET efficiency upon EGF stimulation [2] | response of FRET efficiency to EGF stimulation compared to Pickles_2.34 [3] | change in FRET efficiency upon EGF stimulation [4]
Pickles_2.34: SEQ ID NO: 6: m1Venus, CrkL residues 1-222 with D94A, cp173-ECFP FRET biosensor | did not change | 77.7% |  |  | 
Pickles_2.34NES: SEQ ID NO: 7: Pickles_2.34 with the NES from protein kinase A inhibitor added to its N-terminus |  |  | slight | higher sensitivity | increased significantly
